Assay results: US12180187B2, “1-phenyl-5-azinylpyrazolyl-3-oxyalkyl acids and their use for controlling unwanted plant growth” (BAYER AKTIENGESELLSCHAFT, priority 2019, dated 2024)

Key:
AMARE [1] = assay: Post-emergence action against AMARE, 1.28 kg/ha; format: in vivo, Amaranthus retroflexus; conditions: dosage 1280 g/ha, visual rating about 3 weeks after treatment vs untreated controls (100% = plants died)
Outline: (§1)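 Post-emergence greenhouse spray, one-leaf stage (2–3 wk after sowing), sandy loam. WP/EC, aqueous + 0.5% additive, 600 L/ha water. Visual % activity vs untreated, ~3 wk after treatment; 100% = plants dead.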

KCHSC [2] = assay: Post-emergence action against KCHSC, 1.28 kg/ha; format: in vivo, Bassia scoparia; conditions: dosage 1280 g/ha, visual rating about 3 weeks after treatment vs untreated controls (100% = plants died)
Outline: as §1

ECHCG [3] = assay: Post-emergence action against ECHCG, 1.28 kg/ha; format: in vivo, Echinochloa crus-galli; conditions: dosage 1280 g/ha, visual rating about 3 weeks after treatment vs untreated controls
Outline: as §1

ALOMY [4] = assay: Post-emergence action against ALOMY, 1.28 kg/ha; format: in vivo, Alopecurus myosuroides; conditions: dosage 1280 g/ha, visual rating about 3 weeks after treatment vs untreated controls
Outline: as §1

AMARE [5] = assay: Pre-emergence action against AMARE, 1280 g/ha; format: in vivo, Amaranthus retroflexus; conditions: scored visually after about 3 weeks vs untreated controls (100% = plants have died)
Outline: (§2)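 Compound applied as WP or EC in aqueous spray (0.5% additive, 600 L/ha) to the surface of sandy loam covering freshly sown seeds. After about 3 weeks under good greenhouse conditions, damage is given as visual percentage, 100% meaning plant death.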

ABUTH [6] = assay: Pre-emergence action against ABUTH, 1280 g/ha; format: in vivo, Abutilon theophrasti; conditions: scored visually after about 3 weeks vs untreated controls (100% = plants have died)
Source text: 1. Pre-Emergence Herbicidal Effect and Crop Plant Compatibility a) Seeds of mono- and dicotyledonous weed plants are placed in plastic pots in sandy loam soil (doubly sown with one species each of mono- or dicotyledonous weed plants per pot) and covered with soil. The compounds of the invention, formulated in the form of wettable powders (WP) or as emulsion concentrates (EC), are then applied onto the surface of the covering soil as aqueous suspension or emulsion with addition of 0.5% additive at a water application rate equivalent to 600 litres per hectare. After the treatment, the pots are placed in a greenhouse and kept under good growth conditions for the trial plants. After about 3 weeks, the effect of the preparations is scored visually in comparison with untreated controls as percentages. For example, 100% activity=the plants have died, 0% activity=like control plants. 1. Pre-Emergence Effectiveness Tables 1 to 12 below show the effects of selected compounds of the general formula (I) according to Tables 1 and 2 on various harmful plants and at an application rate corresponding to 1280 g/ha, which were obtained by the experimental procedure mentioned above.

ALOMY [7] = assay: Pre-emergence action against ALOMY, 1280 g/ha; format: in vivo, Alopecurus myosuroides; conditions: visual scoring after about 3 weeks vs untreated controls, 100% = plants have died, 0% = like control plants
Outline: as §2

SETVI [8] = assay: Pre-emergence action against SETVI, 1280 g/ha; format: in vivo, Setaria viridis; conditions: visual scoring after about 3 weeks vs untreated controls, 100% = plants have died, 0% = like control plants
Outline: as §2

POAAN [9] = assay: Pre-emergence action against POAAN, 1280 g/ha; format: in vivo, Poa annua; conditions: visual scoring after about 3 weeks vs untreated controls, 100% = plants have died, 0% = like control plants
Outline: as §2

ECHCG [10] = assay: Pre-emergence action against ECHCG, 1280 g/ha; format: in vivo, Echinochloa crus-galli; conditions: visual scoring after about 3 weeks vs untreated controls, 100% = plants have died, 0% = like control plants
Outline: as §2

STEME [11] = assay: Pre-emergence action against STEME, 1280 g/ha; format: in vivo, Stellaria media; conditions: scored visually after about 3 weeks vs untreated controls (100% = plants have died)
Outline: as §2

VERPE [12] = assay: Post-emergence action against VERPE, 1.28 kg/ha; format: in vivo, Veronica persica; conditions: dosage 1280 g/ha, visual rating about 3 weeks after treatment vs untreated controls (100% = plants died)
Outline: as §1

POAAN [13] = assay: Post-emergence action against POAAN, 1.28 kg/ha; format: in vivo, Poa annua; conditions: dosage 1280 g/ha, visual rating about 3 weeks after treatment vs untreated controls
Outline: as §1

ABUTH [14] = assay: Post-emergence action against ABUTH, 1.28 kg/ha; format: in vivo, Abutilon theophrasti; conditions: dosage 1280 g/ha, visual rating about 3 weeks after treatment vs untreated controls (100% = plants died)
Outline: as §1

DIGSA [15] = assay: Pre-emergence action against DIGSA, 1280 g/ha; format: in vivo, Digitaria sanguinalis; conditions: visual scoring after about 3 weeks vs untreated controls, 100% = plants have died, 0% = like control plants
Outline: as §2

STEME [16] = assay: Post-emergence action against STEME, 1.28 kg/ha; format: in vivo, Stellaria media; conditions: dosage 1280 g/ha, visual rating about 3 weeks after treatment vs untreated controls (100% = plants died)
Outline: as §1

SETVI [17] = assay: Post-emergence action against SETVI, 1.28 kg/ha; format: in vivo, Setaria viridis; conditions: dosage 1280 g/ha, visual rating about 3 weeks after treatment vs untreated controls
Outline: as §1

MATIN [18] = assay: Pre-emergence action against MATIN, 1280 g/ha; format: in vivo, Tripleurospermum inodorum (Matricaria inodora); conditions: scored visually after about 3 weeks vs untreated controls (100% = plants have died)
Outline: as §2

DIGSA [19] = assay: Post-emergence action against DIGSA, 1.28 kg/ha; format: in vivo, Digitaria sanguinalis; conditions: dosage 1280 g/ha, visual rating about 3 weeks after treatment vs untreated controls
Outline: as §1

MATIN [20] = assay: Post-emergence action against MATIN, 1.28 kg/ha; format: in vivo, Tripleurospermum inodorum (Matricaria inodora); conditions: dosage 1280 g/ha, visual rating about 3 weeks after treatment vs untreated controls (100% = plants died)
Outline: as §1

KCHSC [21] = assay: Pre-emergence action against KCHSC, 1280 g/ha; format: in vivo, Bassia scoparia; conditions: scored visually after about 3 weeks vs untreated controls (100% = plants have died)
Outline: as §2

LOLRI [22] = assay: Pre-emergence action against LOLRI, 1280 g/ha; format: in vivo, Lolium rigidum; conditions: visual scoring after about 3 weeks vs untreated controls, 100% = plants have died, 0% = like control plants
Outline: as §2

VERPE [23] = assay: Pre-emergence action against VERPE, 1280 g/ha; format: in vivo, Veronica persica; conditions: scored visually after about 3 weeks vs untreated controls (100% = plants have died)
Outline: as §2

LOLRI [24] = assay: Post-emergence action against LOLRI, 1.28 kg/ha; format: in vivo, Lolium rigidum; conditions: dosage 1280 g/ha, visual rating about 3 weeks after treatment vs untreated controls
Outline: as §1

Compound	Post-emergence action against AMARE (AMARE [1]) [%]	Post-emergence action against KCHSC (KCHSC [2]) [%]	Post-emergence action against ALOMY (ALOMY [4]) [%]	Pre-emergence action against AMARE (AMARE [5]) [%]	Pre-emergence action against ABUTH (ABUTH [6]) [%]	Pre-emergence action against ALOMY (ALOMY [7]) [%]	Pre-emergence action against SETVI (SETVI [8]) [%]	Pre-emergence action against POAAN (POAAN [9]) [%]	Pre-emergence action against ECHCG (ECHCG [10]) [%]	Pre-emergence action against STEME (STEME [11]) [%]	Post-emergence action against VERPE (VERPE [12]) [%]	Post-emergence action against POAAN (POAAN [13]) [%]	Post-emergence action against ABUTH (ABUTH [14]) [%]	Pre-emergence action against DIGSA (DIGSA [15]) [%]	Post-emergence action against STEME (STEME [16]) [%]	Pre-emergence action against MATIN (MATIN [18]) [%]	Post-emergence action against DIGSA (DIGSA [19]) [%]	Post-emergence action against MATIN (MATIN [20]) [%]	Pre-emergence action against KCHSC (KCHSC [21]) [%]	Pre-emergence action against LOLRI (LOLRI [22]) [%]	also measured
O=C(O)C1CCCN1C(=O)COc1nn(-c2ccccc2F)c(-c2cncc(F)c2)c1Br (stereo not drawn) [Example X-039]	90	90	90	100	90	90	90	100	90	90	100	100	100	90	100	100	90	100	100	90	Post-emergence action against ECHCG (ECHCG [3]): 90%; Post-emergence action against SETVI (SETVI [17]): 100%; Pre-emergence action against VERPE (VERPE [23]): 100%
COC(=O)[C@@H](C)Oc1nn(-c2cc(F)ccc2F)c(-c2ccc(F)nc2)c1C#N [VII-099]	100	100	100	100	90	90	100	100	100	100	100	100	90	100	100	100	100	100	100	100	Post-emergence action against LOLRI (LOLRI [24]): 100%; Pre-emergence action against VERPE (VERPE [23]): 100%
